Measurements taken from patent publication US20100143310A1, “SPINAL NERVE REPAIR PROMOTING THERAPEUTICS CONTAINING GHRELIN OR ITS DERIVATIVES OR SUBSTANCES THAT ACT ON GHS-R1a AS AN ACTIVE INGREDIENT” (JAPAN AS REPRESENTED BY PRESIDENT OF NATIONAL …, priority 2006, published 2010).
Where no end group is shown, it is not given here. The star is where a group is joined. Octanoyl = CCCCCCCC(=O)*

How the values were obtained:
[1] = system: cultured spinal neuronal precursor cells; experiment: BrdU incorporation into cultured spinal neuronal precursor cells (Cell Proliferation ELISA); assay type: cell-based, Wistar rat; settings: for BrdU incorporation into cultured spinal neuronal precursor cells, Mean ± S.D.: incubation 12 hours, n=6, Control 100.0 ± 6.7; for concentration that increased the BrdU incorporation into the cells: 12 hours
Text: Embryos were extracted from a pregnant Wistar rat at day 17 by opening the abdomen under anesthesia. Spinal cords were collected from these embryos and subjected to papain digestion in Hank's balanced salt solution; as a result of subsequent mechanical separation by pipetting, a dispersion of embryonic spinal cord cells was obtained. After being filtered and centrifuged, the dispersed cells were suspended in a DMEM medium containing NaHCO3, 5% fetal bovine serum, penicillin (100 U/mL) and streptomycin (100 μg/mL), followed by plating onto laminin-coated 96-well multi-plates at 10^5 cells per well. After incubation for 4 days, 5-bromo-2'-deoxyuridine (BrdU) (10 μM) was added and incubation was conducted for 6 hours, followed by addition of rat ghrelin (0.003-300 nM) and subsequent incubation for 12 hours. After the end of incubation, the cells were recovered and using Cell Proliferation ELISA Kit (Roche Diagnostic GmbH, Mannheim, Germany), the amount of BrdU incorporation into the cells was measured to investigate the action of ghrelin on BrdU incorporation. Embryos were extracted from a pregnant Wistar rat at day 16 by opening the abdomen under anesthesia. Spinal cords were collected from these embryos and subjected to papain digestion in Hank's balanced salt solution; as a result of subsequent mechanical separation by pipetting, a dispersion of embryonic spinal cord cells was obtained. After being filtered and centrifuged, the dispersed cells were suspended in a DMEM medium containing NaHCO3, 5% fetal bovine serum, penicillin (100 U/mL) and streptomycin (100 μg/mL), followed by plating onto laminin-coated 96-well multi-plates at 10^5 cells per well. After incubation for 4 days, 5-bromo-2'-deoxyuridine (BrdU) (10 μM) was added and incubation was conducted for 6 hours; further, rat ghrelin, ghrelin(1-5)-Lys-NH2 (GSS(n-octanoyl)FLK-NH2), ghrelin(1-7)-Lys-NH2 ([…]) or MK-0677 having the structure indicated below was added in amounts of 0.03-3 nM and incubation was conducted for 12 hours before investigating the action of ghrelin on BrdU incorporation. After the end of incubation, the cells were recovered and using Cell Proliferation ELISA Kit (Roche Diagnostic GmbH, Mannheim, Germany), the amount of BrdU incorporation into the cells was measured to investigate the action of ghrelin on BrdU incorporation.

[2] = system: spinal neuron proliferating action of ghrelin; experiment: Effect of L-type calcium channel blocker on the spinal neuron proliferating action of ghrelin; assay type: cell-based
[3] = system: spinal neuronal precursor cells; experiment: Detection of BrdU positive cells with anti-BrdU antibody; assay type: cell-based, Wistar rat; settings: FIG. 5, compared to the case where ghrelin was not allowed to act (physiological saline)
Text: (§1) Embryos were extracted from a pregnant Wistar rat at day 17 by opening the abdomen under anesthesia. Spinal cords were collected from these embryos and subjected to papain digestion in Hank's balanced salt solution; as a result of subsequent mechanical separation by pipetting, a dispersion of embryonic spinal cord cells was obtained. After being filtered and centrifuged, the dispersed cells were suspended in a DMEM medium containing NaHCO3, 5% fetal bovine serum, penicillin (100 U/mL) and streptomycin (100 μg/mL), followed by plating onto laminin-coated 96-well multi-plates at 10^5 cells per well. After incubation for 4 days, 5-bromo-2′-deoxyuridine (BrdU) (10 μM) was added and incubation was conducted for 6 hours, followed by addition of rat ghrelin (0.003-300 nM) and subsequent incubation for 12 hours.
After the end of incubation, the cells were fixed with methanol and glacial acetic acid, had their DNA denatured with 2 N HCl; thereafter, the BrdU incorporated into the cells was measured by detecting the BrdU positive cells using a rat anti-BrdU monoclonal antibody (1:1000, Abcam, Cambridge, UK) as a primary antibody, and also using Cy™ 3-conjugated donkey anti-rat IgG polyclonal antibody (1:1000, Jackson ImmunoResearch Laboratories, Inc., PA, USA) as a secondary antibody, in order to investigate the action of ghrelin for proliferating spinal precursor cells. […]

[4] = system: spinal neuronal precursor cells; experiment: Double immunostaining for Nestin or Map2 and BrdU in proliferating spinal cord cells; assay type: cell-based, Wistar rat; settings: FIG. 3-1 A and B; BrdU in nuclei of Nestin-stained cells, not in Map2-stained cells
Procedure: Double immunostaining was conducted in order to confirm the co-presence of the neuronal precursor cell marker Nestin or the neutron marker Map2 and GHS-R in proliferating cells (cells that were incorporating BrdU).
as §1, with “fetal” for “embryonic”, “well.” for “well. After incubation for 4 days, 5-bromo-2′-deoxyuridine (BrdU) (10 μM) was added and incubation was conducted for 6 hours, followed by addition of rat ghrelin (0.003-300 nM) and subsequent incubation for 12 hours.”
To the plates, 5-bromo-2′-deoxyuridine (BrdU) (10 μM) was added and incubation was conducted for 4 days to thereby incorporate the BrdU into the spinal cord cells. The spinal cord cells were fixed with methanol and glacial acetic acid at −20° C. for 20 minutes. After DNA denaturation with 2 M HCl, 2% normal goat serum in PBS was used to perform blocking at room temperature for 30 minutes. […]

[5] = system: rat models with injured spinal cord; experiment: Grafting spinal neuronal precursor cells and locally administering ghrelin to rat models with injured spinal cord; assay type: in vivo, SD rats
Procedure: In accordance with the procedure described in Morino, T. et al, Neuroscience Research, 2003, vol. 46, pp 309-318, the grafting of spinal neuronal precursor cells and local administration of ghrelin to rat models with injured spinal cord were assessed. Male SD rats (8 to 9 weeks old) were anesthetized with pentobarbital and incised in the back to expose a vertebra ([…]). After excising the vertebral arch, a dental drill was used to open a window with a diameter of […], and a stainless steel needle with a silicone rubber fixed thereto was applied vertically, followed by loading of the top with a 20-g weight. Following a compression time of 30 minutes, a damaging drop equivalent to a weight of about 100 g was finally applied from above to construct models suffering a movement disorder in the lower limbs. The animals were divided into three groups: 1) a group under sham operation; 2) a control group with injured spinal cord; and 3) a group with injured spinal cord, treated by cell grafting, and locally administered with ghrelin. The group under sham operation received laminectomy but was simply sutured in the muscle and skin thereafter. After injuring the spinal cord, cultured spinal neuronal precursor cells (10^5 cells/25 μL) were grafted subdurally. Rat ghrelin was administered subdurally in an amount of 1 nmol together with the cells.
Twenty-four hours after the operation, the rats were transferred into a see-through cage and observed for the frequency of their standing up (by 3-minute observation). More specifically, the frequency of the rat standing up (in such a posture that it lifted the upper limbs and supported the body weight only with the lower limbs) was counted to assess the function of its hind limbs.

Compound | BrdU incorporation into cultured spinal neuronal precursor cells, Mean ± S.D. ([1]; 0.03 nM) | BrdU incorporation into cultured spinal neuronal precursor cells, Mean ± S.D. ([1]; 0.3 nM) | BrdU incorporation into cultured spinal neuronal precursor cells, Mean ± S.D. ([1]; 3 nM) | suppression of the spinal neuron proliferating action of ghrelin [2] | concentration that increased the BrdU incorporation into the cells ([1]; Example 5, 0.03-3 nM tested) [nM] | concentration that increased the BrdU incorporation into the cells ([1]; Example 4, FIG. 4, rat ghrelin 0.003-300 nM tested) [nM] | BrdU positive cells detected [3] | cell type proliferated after treatment (BrdU with Nestin or Map2 double staining) [4] | frequency of a rat standing up per unit time, 24 hours after operation ([5]; 24 hours after operation, rat ghrelin 1 nmol subdurally together with grafted cells (10^5 cells/25 μL), 3-minute observation, control group with injured spinal cord 1.3 ± 0.6) | function of hind limbs (frequency of standing up), result in words ([5]; combination of cell grafting and local administration of ghrelin) | frequency of a rat standing up per unit time, Initial ([5]; initial, 3-minute observation)
GSS(n-octanoyl)FLSPK-NH2 (GSS(Octanoyl)FLSPK-NH2; N-terminus assumed; SMILES CCCCCCCC(=O)OC[C@H](NC(=O)[C@H](CO)NC(=O)CN)C(=O)N[C@@H](Cc1ccccc1)C(=O)N[C@@H](CC(C)C)C(=O)N[C@@H](CO)C(=O)N1CCC[C@H]1C(=O)N[C@@H](CCCCN)C(N)=O) [Ghrelin (1-7)-Lys-NH2] | 108.3 ± 11.6 | 115.9 ± 14.1 | 140.5 ± 41.9 | – | – | – | – | – | – | – | –
GSS(n-octanoyl)FLK-NH2 (GSS(Octanoyl)FLK-NH2; N-terminus assumed; SMILES CCCCCCCC(=O)OC[C@H](NC(=O)[C@H](CO)NC(=O)CN)C(=O)N[C@@H](Cc1ccccc1)C(=O)N[C@@H](CC(C)C)C(=O)N[C@@H](CCCCN)C(N)=O) [Ghrelin (1-5)-Lys-NH2] | 106.9 ± 13.2 | 114.2 ± 11.3 | 103.5 ± 9.6 | – | – | – | – | – | – | – | –
COc1ccc([C@@H]2Sc3ccccc3N(CCN(C)C)C(=O)[C@@H]2OC(C)=O)cc1 [diltiazem] | – | – | – | did not suppress | – | – | – | – | – | – | –
CC(C)(N)C(=O)N[C@H](COCc1ccccc1)C(=O)N1CCC2(CC1)CN(S(C)(=O)=O)c1ccccc12 [MK-0677, reference compound] | 119.5 ± 4.6 | 112.0 ± 13.9 | 105.8 ± 13.0 | – | 0.03 | – | – | – | – | – | –
Ghrelin: rat ghrelin: 28-residue peptide, third serine acylated with n-octanoyl; endogenous ligand of GHS-R1a (SEQ ID NO:3 or 4) (GSS(Octanoyl)FLSPEHQKAQQRKESKKPPAKLQPR) | 112.5 ± 8.7 | 112.0 ± 15.0 | 120.4 ± 7.9 | – | – | ≥ 3 | a large number of BrdU positive cells were detected | has an action for proliferating spinal neuronal precursor cells | 8.7 ± 4.2 | led to a recovery in the frequency of standing up | 11.7 ± 2.3
